Measurements: patent EP2216326B1, “Biologically acceptable choline compounds and their use as tensides” (Universität Regensburg, priority 2009, dated 2010)
Where two headings read alike, the source gives them in different places.

Tests used:
HeLa-Zellen = assay: MTT assay (Mosmann) cytotoxicity on HeLa cells; format: cell-based, human; details: 72 h at 37°C, at least 5 independent measurements, high values mean low toxicity
Excerpt: (§1) Die Zytotoxizität und Hautverträglichkeit von ChDS im Vergleich zu anderen gängigen anionischen Tensiden wurden mittels in-vitro Tests an HeLa-Zellen (humane Gebärmutterhalskrebszellen) und SK-MHL 28 Zellen (humane Melanom-Zellen) getestet. Dieses etablierte in vitro Verfahren ist in N. Vlachy, D. Touraud, J. Heilmann, W. Kunz, Colloids and Surfaces B: Biointerfaces, 2009, 70, 278 - 280 beschrieben und bietet eine gute Alternative zu den in vivo Draize-Augenirritationstests.
(§2) Die Zellen wurden von der American Type Culture Collection (ATCC) zur Verfügung gestellt. Die Kultivierung der HeLa-Zellen erfolgte in Earle's minimum essential medium (MEM) mit 0.85 g/l Natriumhydrogencarbonat, zusätzlich versetzt mit fötalem Kälberserum (10%), L-Glutamin (2mM), nichtessentiellen Aminosäuren (1%), Amphotericin B ([…]) und Penicillin G/Streptomycin Sulfat (100u/ml). Die SK - MEL 28 - Zellen wurden in einer 1:1 Mischung aus Dulbecco's MEM mit 4.5 g/l Natriumhydrogencarbonat sowie LGlutamin und Pyrovat und HAM'S F-12 Medium mit 1.176 g/l Natriumhydrogencarbonat und stabilem Glutamin, versetzt mit 10% fötalem Kälberserum, kultiviert.
(§3) Die Inhibitionskonzentration an Testsubstanz, welche zu einer Reduktion an lebenden Zellen um 50% im Vergleich zu einer unbehandelten Kontrolle führt (IC 50), wurde via MTT-Assay nach Mosmann festgestellt.
(§4) Hierzu wurden in der ersten Spalte einer 96-Well-Platte je 15 µl an wässriger Testsubstanzlösung mit 135 µl Medium durchmischt. Je 75 µl dieser Mischung wurden abgenommen und in der zweiten Spalte mit 75 µl Medium verdünnt. Diese Prozedur wurde bis zur vollständigen Füllung der Platte von Spalte zu Spalte wiederholt. Anschließend wurden in jedem Well 11250 Zellen in 75 µl Medium angesät. Die so vorbereiteten Platten wurden 72 Stunden bei 37°C im Brutschrank aufbewahrt.
(§5) Danach wurden 15 µl MTT - Lösung zu jedem Well gegeben und für weitere 4 Stunden inkubiert. Im Anschluss wurde die überstehende Lösung abgetrennt und der reduzierte MTT-Bodensatz jeweils mit 150 µl 10%iger Natrumdodecylsulfat-Lösung versetzt. Nachdem die Platten über Nacht unter Lichtausschluss stehen gelassen wurden, wurde die Absorption der Lösungen bei 560 nm mittels einem TECAN Spectra Fluor Plus microplate reader bestimmt. Nach Mittelung an zwei Einzelmessungen konnte aus den sich ergebenden Dosis-Wirkungskurven der entsprechende IC 50 Wert errechnet werden. Angegebene Werte der Inhibitionskonzentration errechnen sich aus mindestens 5 unabhängigen Messungen.

SK-MEL 28-Zellen = assay: MTT assay (Mosmann) cytotoxicity on SK-MEL 28 cells; format: cell-based, human; details: 72 h at 37°C, at least 5 independent measurements, high values mean low toxicity
Excerpt: as §1, §2, §3, §4, §5

[1] = cited from earlier work; for TKr (Krafft-Temperatur): literature values of comparison substances, references (1)-(3); for Löslichkeitstemperatur in Wasser: water, literature or background statement
[2] = Krafft temperature (solubility temperature of a 1 wt% aqueous solution) by turbidity measurement, with and without added salt; format: physicochemical
Excerpt: Als Maß für die Löslichkeit und Salzempfindlichkeit wurden die Krafft-Punkte in Abwesenheit von Salzen sowie bei unterschiedlichen Salzkonzentrationen herangezogen.
Allgemein kann die Krafft-Temperatur eines Tensids als die Löslichkeitstemperatur einer 1 Gew. %igen Lösung definiert werden, da die CMC generell weit unterhalb dieser Konzentration liegt (R. G. Laughlin, The Aqueous Phase Behavior of Surfactants, Academic Press, San Diego, 1994, p. 108). Dementsprechend wurde zur Bestimmung der Krafft-Temperatur von ChDS eine 1 gew. - %ige Lösung eingewogen. Zur Untersuchung des Einflusses von Salzen auf den Krafft-Punkt wurden 1 gew% - igen Lösungen von ChDS verschiedene Mengen an Natriumchlorid (Merck, p.a.) bzw. Cholinchlorid (Sigma-Aldrich, min. 98%) zugesetzt und die zugehörige Löslichkeitstemperatur gemessen.
Präzise Löslichkeitstemperaturen wurden aus Trübungsmessungen gemäß des in S. Schrödle, R. Buchner, W. Kunz, Fluid Phase Equilib., 2004, 216, 175-182 beschriebenen Verfahrens erhalten. Hierzu wurden alle untersuchten Proben bis zum Auftreten eines Niederschlags abgekühlt und anschließend mit einer Rate von 5°C pro Stunde wieder aufgeheizt.
Die Salzempfindlichkeit wurde durch Messung der Krafft-Temperatur bei unterschiedlichen Salzkonzentrationen untersucht.

[3] = Surface tension of aqueous surfactant solutions, ring method (Krüss Tensiometer K100); format: physicochemical; details: 25°C, aqueous solution, value reached starting from ca. 70 mN/m for water (Figur 3)
Experimental: Die Herabsetzung der Grenzflächenspannung von Wasser durch Zugabe an Tensid ist ein wichtiges Maß für die Effizienz eines Tensids. Die Oberflächenspannung von wässrigen ChDS- und SDS- Lösungen wurde anhand der Ringmethode mit einem Krüss Tensiometer K100 vermessen. Figur 3 zeigt die gemessene Grenzflächenspannung bei einer Temperatur von 25°C in Abhängigkeit von der Konzentration.

[4] = Solubility in organic solvents; format: physicochemical; details: Chloroform, Aceton, Acetonitril or Dimethylsulfoxid
Ratten-Gliom-Zellen = details: rat glioma cells, cited from earlier work

CCCCCCCCCCCC(=O)O [ChCl2, Cholinlaurat]
IC50 (HeLa-Zellen): 305 ± 6 µM
IC50 (SK-MEL 28-Zellen): 360 ± 10 µM
TKr (Krafft-Temperatur) [1]: <0°C^(3)

CCCCCCCCCCCCOS(=O)(=O)O [ChDS, Cholindodecylsulfat]
IC50 (HeLa-Zellen; Homo sapiens, HeLa, 72 h): 404 ± 4 µM
IC50 (SK-MEL 28-Zellen; Homo sapiens, SK-MEL-28, 72 h): 430 ± 20 µM
TKr (Krafft-Temperatur) ([2]; 1 wt% aqueous solution, no salt, turbidity measurement): 0 °C
Anstieg der Krafft-Temperatur ([2]; NaCl:surfactant ratio of 1:1, 1 wt% solution (Figur 1, Figur 2)): ~7 °C
in Wasser löslich bis (Temperatur) ([2]; water, found by the applicant): < 0 °C
Grenzflächenspannung von Wasser [3]: ca. 37 mN/m
Löslichkeit in organischen Lösungsmitteln [4]: gut löslich

C[N+](C)(C)CCO [Cholin, (2-Hydroxyethyl)trimethylammonium]
Toxizität geringer im Vergleich zu Tetramethylammonium (TMA), Faktor (Ratten-Gliom-Zellen; factor of lower toxicity versus TMA): 5,5
Toxizität geringer im Vergleich zu Tetrabutylammonium, -fach (Ratten-Gliom-Zellen; fold lower toxicity versus tetrabutylammonium): > 500

CCCCCCCCCCCC(=O)O [KC12, Kaliumlaurat]
IC50 (HeLa-Zellen; Homo sapiens, HeLa, 72 h): 234 ± 5 µM
IC50 (SK-MEL 28-Zellen; Homo sapiens, SK-MEL-28, 72 h): 400 ± 10 µM
TKr (Krafft-Temperatur) [1]: 10°C^(3)

CCCCCCCCCCCCOS(=O)(=O)O [KDS, Kaliumdodecylsulfat]
TKr (Krafft-Temperatur) [1]: 40°C^(1)

CCCCCCCCCCCC(=O)O [NaCl2, Natriumlaurat]
IC50 (HeLa-Zellen): 230 ± 10 µM
IC50 (SK-MEL 28-Zellen): 420 ± 10 µM
TKr (Krafft-Temperatur) [1]: 25°C^(2)

CCCCCCCCCCCCOS(=O)(=O)O [SDS, Natriumdodecylsulfat]
IC50 (HeLa-Zellen): 270 ± 10 µM
IC50 (SK-MEL 28-Zellen): 320 ± 30 µM
Grenzflächenspannung von Wasser [3]: ca. 36 mN/m
Löslichkeit in organischen Lösungsmitteln [4]: nur geringe Löslichkeit
TKr (Krafft-Temperatur) [1]: 16°C^(1)
Löslichkeitstemperatur in Wasser [1]: 12-25 °C

CCCCCCCCCCCCOS(=O)(=O)O [Tetramethylammoniumdodecylsulfat]
Löslichkeitstemperatur in Wasser [1]: < 0 °C
